Laboratory results taken from PubChem BioAssay (NCI).
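Interpolation was linear, between the two tested concentrations surrounding the appropriate level; five concentrations were tested over 48 hours in 96-well plates. Abbreviation: GI50, concentration required for 50% inhibition of growth. TGI marks complete inhibition of growth.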

Experiments:
Assay in all cases: growth of human tumour cells (NCI), 48 h
786-0 renal = system: 786-0 renal
A498 renal = system: A498 renal
A549 NSCLC = system: A549 NSCLC
ACHN renal = system: ACHN renal
BT-549 breast = system: BT-549 breast
CAKI-1 renal = system: CAKI-1 renal
CCRF-CEM leukemia = system: CCRF-CEM leukemia
COLO 205 colon = system: COLO 205 colon
DU-145 prostate = system: DU-145 prostate
EKVX NSCLC = system: EKVX NSCLC
HCC-2998 colon = system: HCC-2998 colon
HCT-15 colon = system: HCT-15 colon
HL-60(TB) leukemia = system: HL-60(TB) leukemia
HOP-62 NSCLC = system: HOP-62 NSCLC
HOP-92 NSCLC = system: HOP-92 NSCLC
HS 578T breast = system: HS 578T breast
HT29 colon = system: HT29 colon
IGROV1 ovarian = system: IGROV1 ovarian
K-562 leukemia = system: K-562 leukemia
LOX IMVI melanoma = system: LOX IMVI melanoma
MALME-3M melanoma = system: MALME-3M melanoma
MCF7 breast = system: MCF7 breast
MDA-MB-231 breast = system: MDA-MB-231 breast
MDA-MB-435 = system: MDA-MB-435
MOLT-4 leukemia = system: MOLT-4 leukemia
NCI-H226 lung = system: NCI-H226 lung
NCI-H23 lung = system: NCI-H23 lung
NCI-H460 lung = system: NCI-H460 lung
NCI-H522 lung = system: NCI-H522 lung
NCI/ADR-RES ovarian = system: NCI/ADR-RES ovarian
OVCAR-3 ovarian = system: OVCAR-3 ovarian
OVCAR-4 ovarian = system: OVCAR-4 ovarian
OVCAR-5 ovarian = system: OVCAR-5 ovarian
OVCAR-8 ovarian = system: OVCAR-8 ovarian
PC-3 prostate = system: PC-3 prostate
RPMI-8226 leukemia = system: RPMI-8226 leukemia
RXF 393 renal = system: RXF 393 renal
SF-268 CNS = system: SF-268 CNS
SF-295 CNS = system: SF-295 CNS
SF-539 CNS = system: SF-539 CNS
SK-MEL-2 melanoma = system: SK-MEL-2 melanoma
SK-MEL-28 melanoma = system: SK-MEL-28 melanoma
SK-MEL-5 melanoma = system: SK-MEL-5 melanoma
SK-OV-3 ovarian = system: SK-OV-3 ovarian
SN12C renal = system: SN12C renal
SNB-19 CNS = system: SNB-19 CNS
SNB-75 CNS = system: SNB-75 CNS
SR leukemia = system: SR leukemia
SW-620 colon = system: SW-620 colon
T-47D breast = system: T-47D breast
TK-10 renal = system: TK-10 renal
U251 CNS = system: U251 CNS
UACC-257 melanoma = system: UACC-257 melanoma
UACC-62 melanoma = system: UACC-62 melanoma
UO-31 renal = system: UO-31 renal

COc1ccc(/C=C2\CC(C)CC3C2=NN(c2ccccc2)C3c2ccc(OC)c(OC)c2)cc1OC (stereo not given)
GI50 (786-0 renal): 5.24 µM | TGI (786-0 renal): 37.3 µM | GI50 (A498 renal): 14.5 µM | TGI (A498 renal): 72.7 µM | GI50 (A549 NSCLC): 5.72 µM | TGI (A549 NSCLC): > 100 µM | GI50 (ACHN renal): 4.48 µM | TGI (ACHN renal): 48.6 µM | GI50 (BT-549 breast): 4.58 µM | TGI (BT-549 breast): 79.7 µM | GI50 (CAKI-1 renal): 6.47 µM | TGI (CAKI-1 renal): > 100 µM | GI50 (CCRF-CEM leukemia): 4.02 µM | TGI (CCRF-CEM leukemia): > 100 µM | GI50 (COLO 205 colon): 4.67 µM | TGI (COLO 205 colon): > 100 µM | GI50 (DU-145 prostate): 4.17 µM | TGI (DU-145 prostate): > 100 µM | GI50 (EKVX NSCLC): 5.61 µM | TGI (EKVX NSCLC): > 100 µM | GI50 (HCC-2998 colon): 1.69 µM | TGI (HCC-2998 colon): 3.13 µM | GI50 (HCT-15 colon): 1.98 µM | TGI (HCT-15 colon): 4.38 µM | GI50 (HL-60(TB) leukemia): 2.76 µM | TGI (HL-60(TB) leukemia): 8.7 µM | GI50 (HOP-62 NSCLC): 4.87 µM | TGI (HOP-62 NSCLC): 17 µM | GI50 (HOP-92 NSCLC): 5.32 µM | TGI (HOP-92 NSCLC): > 100 µM | GI50 (HS 578T breast): > 100 µM | TGI (HS 578T breast): > 100 µM | GI50 (HT29 colon): 3.18 µM | TGI (HT29 colon): 16.1 µM | GI50 (IGROV1 ovarian): 5.37 µM | TGI (IGROV1 ovarian): > 100 µM | GI50 (K-562 leukemia): 1.85 µM | TGI (K-562 leukemia): 5.4 µM | GI50 (LOX IMVI melanoma): 2.19 µM | TGI (LOX IMVI melanoma): 4.8 µM | GI50 (MALME-3M melanoma): 8.64 µM | TGI (MALME-3M melanoma): > 100 µM | GI50 (MCF7 breast): 3.23 µM | TGI (MCF7 breast): 42.6 µM | GI50 (MDA-MB-231 breast): 3.24 µM | TGI (MDA-MB-231 breast): 13.2 µM | GI50 (MDA-MB-435): 3.2 µM | TGI (MDA-MB-435): > 100 µM | GI50 (MOLT-4 leukemia): 2.69 µM | TGI (MOLT-4 leukemia): 92.4 µM | GI50 (NCI-H226 lung): 3.09 µM | TGI (NCI-H226 lung): 9.75 µM | GI50 (NCI-H23 lung): 4.49 µM | TGI (NCI-H23 lung): 27.2 µM | GI50 (NCI-H460 lung): 3.09 µM | TGI (NCI-H460 lung): 12.4 µM | GI50 (NCI-H522 lung): 4.83 µM | TGI (NCI-H522 lung): > 100 µM | GI50 (NCI/ADR-RES ovarian): 2.71 µM | TGI (NCI/ADR-RES ovarian): 9.51 µM | GI50 (OVCAR-3 ovarian): 3.71 µM | TGI (OVCAR-3 ovarian): > 100 µM | GI50 (OVCAR-4 ovarian): 3.65 µM | TGI (OVCAR-4 ovarian): > 100 µM | GI50 (OVCAR-5 ovarian): 3.16 µM | TGI (OVCAR-5 ovarian): 12.1 µM | GI50 (OVCAR-8 ovarian): 6.78 µM | TGI (OVCAR-8 ovarian): > 100 µM | GI50 (PC-3 prostate): 6.32 µM | TGI (PC-3 prostate): > 100 µM | GI50 (RPMI-8226 leukemia): 3.38 µM | TGI (RPMI-8226 leukemia): > 100 µM | GI50 (RXF 393 renal): > 100 µM | TGI (RXF 393 renal): > 100 µM | GI50 (SF-268 CNS): 3.31 µM | TGI (SF-268 CNS): 37.2 µM | GI50 (SF-295 CNS): 3.59 µM | TGI (SF-295 CNS): 57.6 µM | GI50 (SF-539 CNS): 4.46 µM | TGI (SF-539 CNS): 24.9 µM | GI50 (SK-MEL-2 melanoma): 8.8 µM | TGI (SK-MEL-2 melanoma): > 100 µM | GI50 (SK-MEL-28 melanoma): 4.87 µM | TGI (SK-MEL-28 melanoma): 18.3 µM | GI50 (SK-MEL-5 melanoma): 2.41 µM | TGI (SK-MEL-5 melanoma): 6.94 µM | GI50 (SK-OV-3 ovarian): 9.29 µM | TGI (SK-OV-3 ovarian): > 100 µM | GI50 (SN12C renal): 3.45 µM | TGI (SN12C renal): 14.5 µM | GI50 (SNB-19 CNS): 7.39 µM | TGI (SNB-19 CNS): > 100 µM | GI50 (SNB-75 CNS): 3.4 µM | TGI (SNB-75 CNS): 18.5 µM | GI50 (SR leukemia): 2.82 µM | TGI (SR leukemia): 12.4 µM | GI50 (SW-620 colon): 3.96 µM | TGI (SW-620 colon): > 100 µM | GI50 (T-47D breast): 4.48 µM | TGI (T-47D breast): > 100 µM | GI50 (TK-10 renal): 5.78 µM | TGI (TK-10 renal): > 100 µM | GI50 (U251 CNS): 3.92 µM | TGI (U251 CNS): 15.3 µM | GI50 (UACC-257 melanoma): 7.94 µM | TGI (UACC-257 melanoma): > 100 µM | GI50 (UACC-62 melanoma): 4.29 µM | TGI (UACC-62 melanoma): 17.3 µM | GI50 (UO-31 renal): 5.75 µM | TGI (UO-31 renal): > 100 µM
